Measurements taken from patent US20210355106A1, “NEW AMINO-PYRIMIDONYL-PIPERIDINYL DERIVATIVES, A PROCESS FOR THEIR PREPARATION AND PHARMACEUTICAL COMPOSITIONS CONTAINING THEM” (LES LABORATOIRES SERVIER, priority 2018, published 2021).

Experiments:
USP7 = target: T1, USP7 (Homo sapiens, UniProt Q93009, C315A); experiment: Inhibition of USP7 by Fluorescence Intensity (FLINT) readings, Ubiquitin-Rhodamine-110 substrate; assay type: biochemical; settings: 0.25 nM His-His-USP7 (aa208-560), 60 minutes at 30° C. preincubation; Ki determined from IC50 according to Cer et al.
T1 construct: 0.25 nM His-His-USP7 (aa208-560, |C315A|) was incubated with compound; His-His (N)
Experimental: USP7 activity was measured using Rhodamine-110 c-terminal labelled Ubiquitin as a substrate (UbiQ Bio), Incubation with USP7 results in the release of Rhodamine-110 leading to an increase in fluorescence which can be used in the continuous measurement of USP7 activity.
The USP7 reactions were performed in a 50 μL volume, in 384 well black solid low binding plates (Corning #3575). The reaction buffer consisted of 100 mM Bicine pH 8.0, 0.01% TritonX 100, 1 mM TCEP, and 10% DMSO.
0.25 nM His-His-USP7 (aa208-560, |C315A|) was incubated with compound (final concentration 10% DMSO) for 60 minutes at 30° C. The reaction was then initiated by the addition of 50) nM Ubiquitin-Rhodamine-110 substrate or 4 μM Ubiquitin-Rhodamine-110 substrate and the plate read every 3 minutes for 21 minutes to measure the release of Rhodamine-110. Fluorescence Intensity (FLINT) readings were measured using a Biomek Neo plate reader (Ex.485 nm, Em.535 nm).
The inhibition of increasing doses of compound was expressed as a percentage reduction in kinetic rate compared to the kinetic rates established between ‘DMSO only’ and ‘total inhibition’ controls (no USP7). The inhibitory concentrations that gave a 50% reduction in kinetic rate (IC50) were determined, from 11-point dose response curves, in XL-Fit using a 4-Parameter Logistic Model 205 (Sigmoidal Dose-Response Model). The K, values were determined from the IC50 values according to Cer et al. Nucleic Acids Res. 2009, July 1; 37 (WebServer issue): W441-W445.

[1] = tested on: Z138 mantle cell lymphoma tumour cell lines; experiment: In vitro cytotoxicity, MTT assay; assay type: cell-based; settings: Homo sapiens, Z-138; Z138 cells, exposed to the test compounds for 96 hours
Experimental: The cytotoxicity studies were evaluated by MTT [3-(4,5-dimethylthiaxol-2-yl)-2,5-diphenyltetrazolium bromide|assay and carried out on Z138 mantle cell lymphoma tumour cell lines. The cells are distributed onto microplates and exposed to the test compounds for 96 hours. MTT is then added for 4 hours and converted by NAD(P)H-dependent cellular oxidoreductase enzymes in forma/an, which has a purple color. The viable cell number is proportional to the production of formazan salts and cell viability can be quantified by the absorbance of the solution at 540 nm with a spectrophotometer (Carmichael et al., Cancer Res. 1987, 47, 936-942).

T1 sequence (Q93009 208-560 C315A): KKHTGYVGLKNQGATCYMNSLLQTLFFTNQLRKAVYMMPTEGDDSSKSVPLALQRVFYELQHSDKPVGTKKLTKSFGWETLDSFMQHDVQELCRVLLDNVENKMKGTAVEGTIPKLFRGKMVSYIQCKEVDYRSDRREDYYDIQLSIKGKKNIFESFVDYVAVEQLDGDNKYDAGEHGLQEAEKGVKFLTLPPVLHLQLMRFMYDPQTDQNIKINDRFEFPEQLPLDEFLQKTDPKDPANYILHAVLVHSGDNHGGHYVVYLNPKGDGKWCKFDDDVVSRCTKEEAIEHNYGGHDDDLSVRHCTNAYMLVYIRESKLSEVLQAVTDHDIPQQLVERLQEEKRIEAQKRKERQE

Structure (SMILES) | Ki (USP7) | IC50 [1]
Cc1ccc(-c2nc(C)c(C(=O)N3CC[C@@H](C(=O)N4CCC(O)(Cn5cnc(Oc6cccc(OC(F)(F)F)c6)c(N)c5=O)CC4)[C@H](c4ccccc4)C3)s2)cn1 [Example 27, 5-amino-3-[(4-hydroxy-1-((3R,4R)-1-[4-methyl-2-(6-methylpyridin-3-yl)-1,3-thiazole-5-carbonyl]-3-phenylpiperidine-4carbonyl}piperidin-4-yl)methyl]-6-[3-(trifluoromethoxy)phenoxy]pyrimidin-4(3H)-one] | 8.8 nM | 17 nM
Cc1ccc(-c2cc(F)c(C(=O)N3CC[C@@H](C(=O)N4CCC(O)(Cn5cnc(Oc6cccc(C(F)(F)F)c6)c(N)c5=O)CC4)[C@H](c4ccccc4)C3)s2)cn1 [Example 101, 5-amino-3-[[1-[(3R,4R)-1-[3-fluoro-5-(46-methyl-3-pyridyl)thiophene-2-carbonyl]-3-phenyl-piperidine-4-carbonyl]-4-hydroxy-4-piperidyl]methyl]-6-[3-(trifluoromethyl)phenoxy]pyrimidin-4-one] | 11 nM | 25.3 nM
Cc1cnc(CN2CC[C@@H](C(=O)N3CC[C@](O)(Cn4cnc(Oc5ccc(F)cc5)c(N)c4=O)C(F)(F)C3)[C@H](c3ccccc3)C2)cn1 [Example 201] | 23.9 nM | 7.5 nM
Cc1cnc(CN2CC[C@@H](C(=O)N3CC[C@](O)(Cn4cnc(Oc5ccc(Cl)cc5)c(N)c4=O)C(F)(F)C3)[C@H](c3ccccc3)C2)cn1 [Example 221, 5-amino-6-(4-chlorophenoxy)-3-[[(4S)-3,3-difluoro-4-hydroxy-1-[(3R,4R)-1-[(5-methylpyrazin-2-yl)methyl]-3-phenyl-piperidine-4-carbonyl]-4-piperidyl]methyl]pyrimidin-4-one] | 35.5 nM | 10.2 nM
Cc1ccnc(CN2CC[C@@H](C(=O)N3CC[C@](O)(Cn4cnc(Oc5ccc(F)cc5)c(N)c4=O)C(F)(F)C3)[C@H](c3ccccc3)C2)n1 [Example 205] | 35.8 nM | 23.5 nM
Nc1c(Oc2ccc(F)cc2)ncn(CC2(O)CCN(C(=O)[C@@H]3CCN(C4(c5ccccc5)COC4)C[C@H]3c3ccccc3)CC2)c1=O [Example 108, 5-amino-6-(4-fluorophenoxy)-3-[[4-hydroxy-1-((3R,4R)-3-phenyl-1-(3-phenyloxetan-3-yl)piperidine-4-carbonyl]-4-piperidyl]methyl]pyrimidin-4-one] | 63 nM | 50 nM
Nc1c(Oc2ccc(F)cc2)ncn(CC2(O)CCN(C(=O)[C@@H]3CCN(C(=O)Nc4ccccc4)C[C@H]3c3ccccc3)CC2)c1=O [Example 76, (3R,4R).4-[4-[[5-amino-4-(4-fluorophenoxy)-6-oxo-pyrimidin-1-yl]methyl]-4-hydroxy-piperidine-1-carbonyl]-N,3-diphenyl-piperidine-1-carboxamide] | 17 nM | 22 nM
Nc1c(Oc2ccc(F)cc2)ncn(C[C@@]2(O)CCN(C(=O)[C@@H]3CCN(C(=O)c4sc(I)cc4F)C[C@H]3c3ccccc3)CC2(F)F)c1=O [Example 104, 5-amino-3-[[(4S)-3,3-difluoro-1-[(3R,4R)-1-(3-fluoro-5-iodo-thiophene-2-carbonyl)-3-phenyl-piperidine-4-carbonyl]-4-hydroxy-4-piperidyl]methyl]-6-(4-fluorophenoxy)pyrimidin-4-one] | 15 nM | 37.2 nM
COc1cc(Oc2ncn(C[C@@]3(O)CCN(C(=O)[C@@H]4CCN(Cc5ccnc(C)n5)C[C@H]4c4ccccc4)CC3(F)F)c(=O)c2N)ccc1C1CC1 [Example 188, 5-amino-6-(4-cyclopropyl-3-methoxy-phenoxy)-3-[[(4S)-3,3-difluoro-4-hydroxy-1-[(3R,4R)-1-[(2-methylpyrimidin-4-yl)methyl]-3-phenyl-piperidine-4-carbonyl]-4-piperidyl]methyl]pyrimidin-4-one] | 69.9 nM | 69 nM
Cc1ccc(-c2sc(C(=O)N3CC[C@@H](C(=O)N4CCC(O)(Cn5cnc(Oc6ccc(F)cc6)c(N)c5=O)CC4)[C@H](c4ccccc4)C3)c3c2OCCO3)cn1 [Example 68, 5-amino-6-(4-fluorophenoxy)-3-[(4-hydroxy-1-{(3R,4R)-1-[7-(6-methylpyridin-3-yl)-2,3-dihydrothieno[3,4-b][1,4]dioxine-5-carbonyl]-3-phenylpiperidine-4-carbonyl]piperidin-4-yl)methyl]pyrimidin-4(3H)-one] | 4 nM | 6.67 nM
Cc1ccc(-c2nc(C)c(C(=O)N3CC[C@@H](C(=O)N4CCC(O)(Cn5cnc(Oc6ccc(Cl)c(F)c6)c(N)c5=O)CC4)[C@H](c4ccccc4)C3)s2)cn1 [Example 24, 5-amino-6-(4-chloro-3-fluorophenoxy)-3-[(4-hydroxy-1-{(3R,4R)-1-[4-methy-2-(6-methylpyridin-3-yl)-1,3-thiazole-5-carbonyl]-3-phenylpiperidine-4-carbonyl}piperidin-4-yl)methyl]pyrimidin-4(3H)-one] | 4 nM | 9.9 nM
Cc1cc(C(=O)N2CC[C@@H](C(=O)N3CCC(O)(Cn4cnc(Oc5ccc(F)cc5)c(N)c4=O)CC3)[C@H](c3ccccc3)C2)cc(C)n1 [Example 97, 5-amino-3-({1-[(3R,4R)-1-(2,6-dimethylpyridine-4-carbonyl)-3-phenylpiperidine-4-carbonyl]-4-hydroxypiperidin-4-yl}methyl)-6-(4-fluorophenoxy)pyrimidin-4(3H)-one] | 9.8 nM | 42.7 nM
Nc1c(Oc2ccc(F)cc2)ncn(C[C@@]2(O)CCN(C(=O)[C@@H]3CCN(Cc4ccccc4F)C[C@H]3c3ccccc3)CC2(F)F)c1=O [Example 54, 5-amino-3-{[(4S)-3,3-difluoro-1-((3R,4R)-1-[(2-fluorophenyl)methyl]-3-phenylpiperidine-4-carbonyl}-4-hydroxypiperidin-4-yl}methyl)-6-(4-fluorophenoxy)pyrimidin-4(3H)-one] | 13 nM | 9.1 nM
Cc1ccc(-c2nc(C)c(C(=O)N3CC[C@@H](C(=O)N4CCC(O)(Cn5cnc(Oc6ccc(Cl)cc6)c(N)c5=O)CC4)[C@H](c4ccccc4)C3)s2)cn1 [Example 22, 5-amino-6-(4-chlorophenoxy)-3-[(4-hydroxy-1-{(3R,4R)-1-[4-methyl-2-(6-methylpyridin-3-yl)-1,3-thiazole-5-carbonyl]-3-phenylpiperidine-4-carbonyl}piperidin-4-yl)methyl]pyrimidin-4(3H)-one] | 3 nM | 4 nM
Nc1c(Oc2ccc(F)cc2)ncn(C[C@@]2(O)CCN(C(=O)[C@@H]3CCN(Cc4ccnc(-c5ccccc5)n4)C[C@H]3c3ccccc3)CC2(F)F)c1=O [Example 177, 5-amino-3-[[(4S)-3,3-difluoro-4-hydroxy-1-[(3R,4R)-3-phenyl-1-[(2-phenylpyrimidin-4-yl)methyl]piperidine-4-carbonyl]-4-piperidyl]methyl]-6-(4-fluorophenoxy)pyrimidin-4-one] | 9.99 nM | 2.32 nM
Cc1nccc(CN2CC[C@@H](C(=O)N3CCC(O)(Cn4cnc(Oc5ccc(CO)cc5)c(N)c4=O)CC3)[C@H](c3ccccc3)C2)n1 [Example 200] | 30 nM | 106 nM
Cc1nc(C2CCCN(C)C2)sc1C(=O)N1CC[C@@H](C(=O)N2CCC(O)(Cn3cnc(Oc4ccc(F)cc4)c(N)c3=O)CC2)[C@H](c2ccccc2)C1 (stereo partly drawn) [Example 199, 5-amino-6-(4-fluorophenoxy)-3-[[4-hydroxy-1-[(3R,4R)-1-[4-methyl-2-(1-methyl-3-piperidyl)thiazole-5′-carbonyl]-3-phenyl-piperidine-4-carbonyl]-4-piperidyl]methyl]pyrimidin-4-one] | 9.23 nM | 34.1 nM
Nc1c(Oc2ccc(F)cc2)ncn(C[C@@]2(O)CCN(C(=O)[C@@H]3CCN(Cc4cccnn4)C[C@H]3c3ccccc3)CC2(F)F)c1=O [Example 203] | 47.1 nM | 33 nM
Nc1c(Oc2ccc(F)cc2)ncn(CC2(O)CCN(C(=O)[C@@H]3CCN(Cc4ccccc4F)C[C@H]3c3ccccc3)CC2)c1=O [Example 52, 5-amino-6-(4-fluorophenoxy)-3-[(1-((3R,4R)-1-[(2-fluorophenyl)methyl]-3-phenylpiperidine-4-carbonyl}-4-hydroxypiperidin-4-yl)methyl]pyrimidin-4(3H)-one] | 13 nM | 5.4 nM
